Experimental data taken from PMC7814697 (The Journal of organic chemistry, 2019).
In brackets after ≈: the same amount, converted by molar mass.

Legend:
[1] = system: Bacillus subtilis ATCC 6051; experiment: Minimum inhibitory concentration; format: cell-based; conditions: ATCC6051, read-out: MIC, Bacillus subtilis ATCC 6051
[2] = system: Gram-positive bacteria (S. aureus, S. epidermidis, and B. subtilis); experiment: MIC assays summarised across the Gram-positive bacteria; format: cell-based; conditions: MIC without versus with 0.002% polysorbate 80

CN[C@H](CC(C)C)C(=O)N[C@H]1C(=O)N[C@@H](CC(N)=O)C(=O)N[C@H]2C(=O)N[C@H]3C(=O)N[C@H](C(=O)N[C@H](C(=O)O)c4cc(O)cc(O)c4-c4cc3ccc4O)[C@H](O)c3ccc(c(Cl)c3)Oc3cc2cc(c3O[C@@H]2O[C@H](CO)[C@@H](O)[C@H](O)[C@H]2O[C@H]2C[C@](C)(N)[C@H](O)[C@H](C)O2)Oc2ccc(cc2Cl)[C@H]1O [vancomycin] was tested, and the MIC [1] was 0.5 µg/mL (≈ 0.345 µM) and the “decrease in the MIC with 0.002% polysorbate 80” value [2] was “modest two-fold decrease”.
